Data from patent US20250163104A1, “MACROCYCLIC IMMUNOMODULATORS” (priority 2021, published 2025).
Where a SMILES comes first, the peptide text is derived from it. Bridges are numbered along the chain shown (N, C = ends). [ ]: non-standard residue; d: D form. The star is where a group is joined. Ala(morpholin-4-yl) = N[C@@H](CN1CCOCC1)C(=O)O; Phe(4-COOH) = N[C@@H](Cc1ccc(C(=O)O)cc1)C(=O)O; Bip = N[C@@H](Cc1ccc(-c2ccccc2)cc1)C(=O)O; Phe(3-Me) = Cc1cccc(C[C@H](N)C(=O)O)c1; Val(3-OH) = CC(C)(O)[C@H](N)C(=O)O; Cha = N[C@@H](CC1CCCCC1)C(=O)O; dOrn = NCCC[C@@H](N)C(=O)O; Carboxymethyl = O=C(O)C*; Orn = NCCC[C@H](N)C(=O)O; Pra = C#CC[C@H](N)C(=O)O; Dab = NCC[C@H](N)C(=O)O; Dap = NC[C@H](N)C(=O)O

molecular target: T1, human PD-1 / PD-L1-Ig binding on Jurkat cell line over-expressing human PD-1 (Jurkat-PD-1) (Homo sapiens, UniProt Q15116); test: Jurkat-PD-1 Cell Binding High-Content Screening Assay (CBA); type: cell-based; conditions: Jurkat-PD-1 cells, PE-labeled PD-L1-Ig 20 nM final; read-out: Jurkat HPD1_PDL1 IC50
T1 construct: expressed in transfected cells; host or cells: Jurkat
Summary of the method: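 Compounds were preincubated with Jurkat-hPD-1 cells in DMEM plus 10% fetal calf serum for 2 h at 37° C. Phycoerythrin-labeled PD-L1-Ig (20 nM final) was then added for 1 hour. Cells were fixed in 4% paraformaldehyde with Hoechst 33342, and bound fluorescence was quantified by high-content imaging.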

T1 sequence (Q15116 25-288): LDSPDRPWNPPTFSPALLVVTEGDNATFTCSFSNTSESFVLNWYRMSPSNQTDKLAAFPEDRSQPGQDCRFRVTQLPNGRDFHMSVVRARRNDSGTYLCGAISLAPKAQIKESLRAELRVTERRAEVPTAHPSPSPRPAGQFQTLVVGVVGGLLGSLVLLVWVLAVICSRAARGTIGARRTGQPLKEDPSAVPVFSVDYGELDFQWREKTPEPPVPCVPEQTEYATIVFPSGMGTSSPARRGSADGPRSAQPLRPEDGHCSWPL

Compound	IC50
C#CC[C@H](NC(=O)[C@H](CCN)NC(=O)[C@@H]1CSCC(=O)N[C@@H](CN)C(=O)N[C@@H](Cc2ccc(C(=O)O)cc2)C(=O)N[C@@H](CC(=O)O)C(=O)N[C@@H](Cc2cccc(C)c2)C(=O)N[C@@H](Cc2ccc(C(=O)O)cc2)C(=O)N[C@@H](Cc2ccc(-c3ccccc3)cc2)C(=O)N[C@@H](Cc2ccc(C(=O)O)cc2)C(=O)N[C@@H](CCCN)C(=O)N[C@H](CC(C)C)C(=O)N[C@@H](CCN)C(=O)N[C@@H](CC2CCCCC2)C(=O)N[C@@H](C(C)(C)O)C(=O)N[C@@H](CCCN)C(=O)N1)C(N)=O [Compound 1856] ({CH2CO}-[Dap][Phe(4-COOH)]D[Phe(3-Me)][Phe(4-COOH)][Bip][Phe(4-COOH)][Orn][dL][Dab][Cha][Val(3-OH)][Orn]C[Dab][Pra]-NH2; thioether N-14)	6 nM
C#CC[C@H](NC(=O)[C@H](CCN)NC(=O)[C@@H]1CSCC(=O)N[C@@H](CCCN)C(=O)N[C@@H](Cc2ccc(C(=O)O)cc2)C(=O)N[C@@H](CC(=O)O)C(=O)N[C@@H](Cc2cccc(C)c2)C(=O)N[C@@H](Cc2ccc(C(=O)O)cc2)C(=O)N[C@@H](Cc2ccc(-c3ccccc3)cc2)C(=O)N[C@@H](Cc2ccc(C(=O)O)cc2)C(=O)N[C@@H](CCCN)C(=O)N[C@H](CC(C)C)C(=O)N[C@@H](CCN)C(=O)N[C@@H](CC2CCCCC2)C(=O)N[C@@H](C(C)(C)O)C(=O)N[C@@H](Cc2cnc[nH]2)C(=O)N1)C(N)=O [Compound 1857] ({CH2CO}-[Orn][Phe(4-COOH)]D[Phe(3-Me)][Phe(4-COOH)][Bip][Phe(4-COOH)][Orn][dL][Dab][Cha][Val(3-OH)]HC[Dab][Pra]-NH2; thioether N-14)	7.4 nM
C#CC[C@H](NC(=O)[C@H](CCN)NC(=O)[C@@H]1CSCC(=O)N[C@@H](CN)C(=O)N[C@@H](Cc2ccc(OCC(=O)O)cc2)C(=O)N[C@@H](CC(=O)O)C(=O)N[C@@H](Cc2cccc(C)c2)C(=O)N[C@@H](Cc2ccc(OCC(=O)O)cc2)C(=O)N[C@@H](Cc2ccc(-c3ccccc3)cc2)C(=O)N[C@@H](Cc2ccc(OCC(=O)O)cc2)C(=O)N[C@@H](CCCN)C(=O)N[C@H](CC(C)C)C(=O)N[C@@H](CCN)C(=O)N[C@@H](CC2CCCCC2)C(=O)N[C@@H](C(C)(C)O)C(=O)N[C@@H]([C@@H](C)O)C(=O)N1)C(N)=O [Compound 1858] ({CH2CO}-[Dap]Y(Carboxymethyl)D[Phe(3-Me)]Y(Carboxymethyl)[Bip]Y(Carboxymethyl)[Orn][dL][Dab][Cha][Val(3-OH)]TC[Dab][Pra]-NH2; thioether N-14)	5 nM
C#CC[C@H](NC(=O)[C@H](CCN)NC(=O)[C@@H]1CSCC(=O)N[C@@H](CN2CCOCC2)C(=O)N[C@@H](Cc2ccc(OCC(=O)O)cc2)C(=O)N[C@@H](CC(=O)O)C(=O)N[C@@H](Cc2cccc(C)c2)C(=O)N[C@@H](Cc2ccc(OCC(=O)O)cc2)C(=O)N[C@@H](Cc2ccc(-c3ccccc3)cc2)C(=O)N[C@@H](Cc2ccc(OCC(=O)O)cc2)C(=O)N[C@@H](CCCN)C(=O)N[C@H](CC(C)C)C(=O)N[C@@H](CCN)C(=O)N[C@@H](CC2CCCCC2)C(=O)N[C@@H](C(C)(C)O)C(=O)N[C@@H]([C@@H](C)O)C(=O)N1)C(N)=O [Compound 1859] ({CH2CO}-[Ala(morpholin-4-yl)]Y(Carboxymethyl)D[Phe(3-Me)]Y(Carboxymethyl)[Bip]Y(Carboxymethyl)[Orn][dL][Dab][Cha][Val(3-OH)]TC[Dab][Pra]-NH2; thioether N-14)	2.1 nM
C#CC[C@H](NC(=O)[C@H](CCN)NC(=O)[C@@H]1CSCC(=O)N[C@@H](CN)C(=O)N[C@@H](Cc2ccc(OCC(=O)O)cc2)C(=O)N[C@@H](CC(=O)O)C(=O)N[C@@H](Cc2cccc(C)c2)C(=O)N[C@@H](Cc2ccc(OCC(=O)O)cc2)C(=O)N[C@@H](Cc2ccc(-c3ccccc3)cc2)C(=O)N[C@@H](Cc2ccc(OCC(=O)O)cc2)C(=O)N[C@@H](CCCN)C(=O)N[C@H](CC(C)C)C(=O)N[C@@H](CCN)C(=O)N[C@@H](CC2CCCCC2)C(=O)N[C@@H](C(C)(C)O)C(=O)N[C@@H](CO)C(=O)N1)C(N)=O [Compound 1860] ({CH2CO}-[Dap]Y(Carboxymethyl)D[Phe(3-Me)]Y(Carboxymethyl)[Bip]Y(Carboxymethyl)[Orn][dL][Dab][Cha][Val(3-OH)]SC[Dab][Pra]-NH2; thioether N-14)	3.9 nM
C#CC[C@H](NC(=O)[C@H](CCN)NC(=O)[C@@H]1CSCC(=O)N[C@@H](CN)C(=O)N[C@@H](Cc2ccc(OCC(=O)O)cc2)C(=O)N[C@@H](CC(=O)O)C(=O)N[C@@H](Cc2cccc(C)c2)C(=O)N[C@@H](Cc2ccc(OCC(=O)O)cc2)C(=O)N[C@@H](Cc2ccc(-c3ccccc3)cc2)C(=O)N[C@@H](Cc2ccc(OCC(=O)O)cc2)C(=O)N[C@@H](CCCN)C(=O)N[C@H](CC(C)C)C(=O)N[C@@H](CCN)C(=O)N[C@@H](CC2CCCCC2)C(=O)N[C@@H](C(C)C)C(=O)N[C@@H](CO)C(=O)N1)C(N)=O [Compound 1861] ({CH2CO}-[Dap]Y(Carboxymethyl)D[Phe(3-Me)]Y(Carboxymethyl)[Bip]Y(Carboxymethyl)[Orn][dL][Dab][Cha]VSC[Dab][Pra]-NH2; thioether N-14)	10.8 nM
C#CC[C@H](NC(=O)[C@H](CCN)NC(=O)[C@@H]1CSCC(=O)N[C@@H](CN)C(=O)N[C@@H](Cc2ccc(C(=O)O)cc2)C(=O)N[C@@H](CC(=O)O)C(=O)N[C@@H](Cc2cccc(C)c2)C(=O)N[C@@H](Cc2ccc(C(=O)O)cc2)C(=O)N[C@@H](Cc2ccc(-c3ccccc3)cc2)C(=O)N[C@@H](Cc2ccc(C(=O)O)cc2)C(=O)N[C@@H](CCCN)C(=O)N[C@H](CC(C)C)C(=O)N[C@@H](CCN)C(=O)N[C@@H](CC2CCCCC2)C(=O)N[C@@H](C(C)(C)O)C(=O)N[C@@H](Cc2cnc[nH]2)C(=O)N1)C(N)=O [Compound 1862] ({CH2CO}-[Dap][Phe(4-COOH)]D[Phe(3-Me)][Phe(4-COOH)][Bip][Phe(4-COOH)][Orn][dL][Dab][Cha][Val(3-OH)]HC[Dab][Pra]-NH2; thioether N-14)	7.4 nM
C#CC[C@H](NC(=O)[C@H](CCN)NC(=O)[C@@H]1CSCC(=O)N[C@@H](CN2CCOCC2)C(=O)N[C@@H](Cc2ccc(OCC(=O)O)cc2)C(=O)N[C@@H](CC(=O)O)C(=O)N[C@@H](Cc2cccc(C)c2)C(=O)N[C@@H](Cc2ccc(OCC(=O)O)cc2)C(=O)N[C@@H](Cc2ccc(-c3ccccc3)cc2)C(=O)N[C@@H](Cc2ccc(OCC(=O)O)cc2)C(=O)N[C@@H](CCCN)C(=O)N[C@H](CC(C)C)C(=O)N[C@@H](CCN)C(=O)N[C@@H](CC2CCCCC2)C(=O)N[C@@H](C(C)C)C(=O)N[C@@H](CO)C(=O)N1)C(N)=O [Compound 1863] ({CH2CO}-[Ala(morpholin-4-yl)]Y(Carboxymethyl)D[Phe(3-Me)]Y(Carboxymethyl)[Bip]Y(Carboxymethyl)[Orn][dL][Dab][Cha]VSC[Dab][Pra]-NH2; thioether N-14)	4.3 nM
C#CC[C@H](NC(=O)[C@H](CCN)NC(=O)[C@@H]1CSCC(=O)N[C@@H](CCCN)C(=O)N[C@@H](Cc2ccc(C(=O)O)cc2)C(=O)N[C@@H](CC(=O)O)C(=O)N[C@@H](Cc2cccc(C)c2)C(=O)N[C@@H](Cc2ccc(C(=O)O)cc2)C(=O)N[C@@H](Cc2ccc(-c3ccccc3)cc2)C(=O)N[C@@H](Cc2ccc(C(=O)O)cc2)C(=O)N[C@@H](CCCN)C(=O)N[C@H](CC(C)C)C(=O)N[C@@H](CCN)C(=O)N[C@@H](CC2CCCCC2)C(=O)N[C@@H](C(C)(C)O)C(=O)N[C@@H](CCCN)C(=O)N1)C(N)=O [Compound 1864] ({CH2CO}-[Orn][Phe(4-COOH)]D[Phe(3-Me)][Phe(4-COOH)][Bip][Phe(4-COOH)][Orn][dL][Dab][Cha][Val(3-OH)][Orn]C[Dab][Pra]-NH2; thioether N-14)	16.5 nM
C#CC[C@H](NC(=O)[C@H](CCN)NC(=O)[C@@H]1CSCC(=O)N[C@@H](CCN)C(=O)N[C@@H](Cc2ccc(C(=O)O)cc2)C(=O)N[C@@H](CC(=O)O)C(=O)N[C@@H](Cc2cccc(C)c2)C(=O)N[C@@H](Cc2ccc(C(=O)O)cc2)C(=O)N[C@@H](Cc2ccc(-c3ccccc3)cc2)C(=O)N[C@@H](Cc2ccc(C(=O)O)cc2)C(=O)N[C@@H](CCCN)C(=O)N[C@H](CC(C)C)C(=O)N[C@@H](CCN)C(=O)N[C@@H](CC2CCCCC2)C(=O)N[C@@H](C(C)(C)O)C(=O)N[C@@H](CO)C(=O)N1)C(N)=O [Compound 1865] ({CH2CO}-[Dab][Phe(4-COOH)]D[Phe(3-Me)][Phe(4-COOH)][Bip][Phe(4-COOH)][Orn][dL][Dab][Cha][Val(3-OH)]SC[Dab][Pra]-NH2; thioether N-14)	12 nM
CC(C)C[C@@H]1NC(=O)[C@H](Cc2c[nH]c3ccccc23)NC(=O)[C@H](CC(=O)O)NC(=O)[C@H](Cc2ccc(O)cc2)NC(=O)[C@H](Cc2ccccc2)NC(=O)CSC[C@@H](C(=O)N[C@@H](C)C(N)=O)NC(=O)[C@H](CO)NC(=O)[C@H](C(C)C)NC(=O)[C@H](CC(C)C)NC(=O)[C@H](CC(N)=O)NC(=O)[C@@H](C)NC(=O)[C@@H](CCCCN)NC(=O)[C@H](C(C)C)NC(=O)[C@H](Cc2ccc(-c3ccccc3)cc2)NC1=O [Compound 2000] ({CH2CO}-FYDWL[Bip]V[dK][dA]NLVSCA-NH2; thioether N-14)	39.4 nM
CC(C)C[C@@H]1NC(=O)[C@H](Cc2c[nH]c3ccccc23)NC(=O)[C@H](CC(=O)O)NC(=O)[C@H](Cc2ccc(O)cc2)NC(=O)[C@H](Cc2ccccc2)NC(=O)CSC[C@@H](C(=O)N[C@@H](C)C(N)=O)NC(=O)[C@H](CO)NC(=O)[C@H](C(C)C)NC(=O)[C@H](CC(C)C)NC(=O)[C@H](CC(N)=O)NC(=O)[C@@H](C)NC(=O)[C@@H](CCCN)NC(=O)[C@H](C(C)C)NC(=O)[C@H](Cc2ccc(-c3ccccc3)cc2)NC1=O [Compound 2001] ({CH2CO}-FYDWL[Bip]V[dOrn][dA]NLVSCA-NH2; thioether N-14)	42.1 nM
